Experimental data taken from patent US20260284075A1, “UNIT DOSAGE COMPOSITION COMPRISING MIDAZOLAM” (B. Braun Melsungen AG, priority 2023, published 2026).

Assay: Pharmacokinetic evaluation of oral thin films in dogs (midazolam in plasma, LC-MS/MS)
Format: in vivo, Marshall Beagle dogs
Details: from cyclodextrin-containing films
Protocol: To investigate the local tolerability and pharmacokinetics of the four oral thin films prepared according to Example 1, the oral thin films containing 3.0 mg of midazolam HCl (corresponding to 2.7 mg of midazolam free base) were subsequently applied to 6 non-naïve Marshall Beagle dogs (3 male weighing 8.6-11 kg and 3 female weighing 7.5-8.1 kg) with at least 3 days washout phase between the treatments. DORMICUM® 7.5 mg tablets and a Midazolam 5 mg/mL solution for injection/infusion (obtained from B. Braun) were used as reference. The dogs were fastened before dose administration and during the period of the experiment. On the days of treatment, the animals were offered their first daily meal after collection of the blood sample 2 hours after dose, and the second meal of the day was given after collection of the blood sample 6 hours after dose.
Blood samples were taken from the dogs before the treatment, and 2, 5, 10, 30, 60, 120, and 360 minutes after the dose administration. Blood samples of approximately 2 mL were collected from the saphenous vein. […]
The concentration of midazolam in the blood samples was determined using validated liquid chromatography-mass spectrometry (LC-MS/MS) methods. […] The concentration of analytes in unknown samples was calculated using the analyte/internal standard area ratios. […] It was well mixed and the samples analyzed by using LC-MS/MS.

Cc1ncc2n1-c1ccc(Cl)cc1C(c1ccccc1F)=NC2 [midazolam, 8-chloro-6-(2-fluoropheny)-1-methyl-4H-imidazo[1,5-α][1,4]benzodiazepine]
time within which midazolam is absorbed through the oral mucosa: ≤ 10 min
